Assay: Fluorescence activation of III-3 fluorophore by Pepper aptamers and mutants
Type: biochemical
Settings: Activation of III-3 by Pepper mutants with multiple mutations; 1 μM III-3 with 5 μM RNA
Description: Preparation of Pepper or Pepper mutant aptamer according to the commonly used experimental method (1). 5 μM aptamer and 1 μM fluorophore were incubated in the detection buffer (40 mM HEPES, pH 7.4, 125 mM KCl, 5 mM MgCl2, 5% DMSO). The maximal excitation and emission peaks of the aptamer-fluorophore complexes were determined using a Synergy Neo2 multifunctional microplate reader. The fluorescence intensities of the aptamer-fluorophore complexes at the maximal excitation and emission peaks were determined using a Synergy Neo2 multifunctional microplate reader. The control sample (1 μM fluorophore without aptamer) was also measured under the same conditions. Then the ratios of fluorescence intensity were calculated. For example, the fluorescence maximal excitation and emission peaks of the complex of 5 μM F30-Pepper-2 and 1 μM III-3 fluorophore are 485 nm and 530 nm, respectively. The fluorescence intensity of the complex at 485±10 nm excitation and 530 nm±10 nm emission was 36,000, the fluorescence intensity of the control sample (1 μM III-3 fluorophore only) under the same detection conditions was 10. Thus, the activation ratio of F30-Pepper-2 aptamer on III-3 fluorophore was 3,600-fold.
In order to detect the fluorescence activation of III-3 fluorophore by different Pepper mutant, the Pepper-1 sequence in F30-Pepper-1 was mutated according to Table 1. […] 1 μM III-3 was incubated with […] RNA and their fluorescence activation folds were determined according to the commonly used experimental method (5). […] In summary, many Pepper mutants containing single and multiple mutants still retain the ability to activate the fluorescence of III-3 fluorophore.
In order to detect the activation of III-3 by modified Pepper, base-modified Pepper-3 was synthesized (SEQ ID NO: 6, the underlined nucleotides in […] GGCC contain deoxyribonucleotide bases) and Pepper-4 (SEQ ID NO: 7, the underlined nucleotides in […] GGGCC contain 2′-F modification) (synthesized by Shanghai GenePharma Co., Ltd), which contain deoxyribonucleotides replacement (shaded bases in FIG. 5A) or 2′-F modification (shaded bases in FIG. 5B) in the stem-loop region of Pepper. Detection of the fluorescence activation of III-3 fluorophore by these modified Peppers was carried out according to the commonly used experimental method (5).
Work on “C2A/G31U/G10A/C30U: F30-Pepper-1 mutant aptamer (NACAAUCGUAGCGUGUCGNNNACUGGCGCUUN; Pepper mutant embedded in F30 scaffold, chemistry not given here, further chemistry not given here)” yielded an Activation folds of 3105 folds. “C2A/G31U/G10C/C30G: F30-Pepper-1 mutant aptamer (NACAAUCGUCGCGUGUCGNNNACUGGCGCGUN; Pepper mutant embedded in F30 scaffold, chemistry not given here, further chemistry not given here)” showed an Activation folds of 3475 folds. “C2A/G31U/G10U/C30A: F30-Pepper-1 mutant aptamer (NACAAUCGUUGCGUGUCGNNNACUGGCGCAUN; Pepper mutant embedded in F30 scaffold, chemistry not given here, further chemistry not given here)” showed an Activation folds of 3024 folds. For “C2A/G31U: F30-Pepper-1 mutant aptamer (NACAAUCGUGGCGUGUCGNNNACUGGCGCCUN; Pepper mutant embedded in F30 scaffold, chemistry not given here, further chemistry not given here)”, the Activation folds was 3365 folds. “C2G/G31C/G10A/C30U/U6G/C27U: F30-Pepper-1 mutant aptamer (NGCAAGCGUAGCGUGUCGNNNACUGGUGCUCN; RNA, backbone, methylation of C and the base at N not given here; Pepper aptamer mutant embedded in F30 scaffold)” showed an Activation folds of 758 folds. Work on “C2G/G31C/G10A/C30U: F30-Pepper-1 mutant aptamer (NGCAAUCGUAGCGUGUCGNNNACUGGCGCUCN; Pepper mutant embedded in F30 scaffold, chemistry not given here, further chemistry not given here)” yielded an Activation folds of 2365 folds. Work on “C2G/G31C/G10C/C30G/U6G/C27U: F30-Pepper-1 mutant aptamer (NGCAAGCGUCGCGUGUCGNNNACUGGUGCGCN; RNA, backbone, methylation of C and the base at N not given here; Pepper aptamer mutant embedded in F30 scaffold)” yielded an Activation folds of 736 folds. Substance “C2G/G31C/G10C/C30G: F30-Pepper-1 mutant aptamer (NGCAAUCGUCGCGUGUCGNNNACUGGCGCGCN; Pepper mutant embedded in F30 scaffold, chemistry not given here, further chemistry not given here)” has an Activation folds of 2684 folds. In the case of “C2G/G31C/G10U/C30A: F30-Pepper-1 mutant aptamer (NGCAAUCGUUGCGUGUCGNNNACUGGCGCACN; Pepper mutant embedded in F30 scaffold, chemistry not given here, further chemistry not given here)”, the Activation folds is reported as 3125 folds. For “C2U/G31A/G10C/C30G: F30-Pepper-1 mutant aptamer (NUCAAUCGUCGCGUGUCGNNNACUGGCGCGAN; Pepper mutant embedded in F30 scaffold, chemistry not given here, further chemistry not given here)”, the Activation folds was 2986 folds. In the case of “C2U/G31A/G10U/C30A: F30-Pepper-1 mutant aptamer (NUCAAUCGUUGCGUGUCGNNNACUGGCGCAAN; Pepper mutant embedded in F30 scaffold, chemistry not given here, further chemistry not given here)”, the Activation folds is reported as 2583 folds. “C2U/G31A: F30-Pepper-1 mutant aptamer (NUCAAUCGUGGCGUGUCGNNNACUGGCGCCAN; Pepper mutant embedded in F30 scaffold, chemistry not given here, further chemistry not given here)” gave an Activation folds of 3256 folds.

Same assay, conditions: Activation of III-3 by Pepper mutants with single mutation; 1 μM III-3 with 5 μM RNA
“A4C: F30-Pepper-1 mutant aptamer (NCCCAUCGUGGCGUGUCGNNNACUGGCGCCGN; Pepper mutant embedded in F30 scaffold, chemistry not given here, further chemistry not given here) [Compound A4C]” gave an Activation folds of 2772 folds. In the case of “A5C: F30-Pepper-1 mutant aptamer (NCCACUCGUGGCGUGUCGNNNACUGGCGCCGN; Pepper mutant embedded in F30 scaffold, chemistry not given here, further chemistry not given here) [Compound A5C]”, the Activation folds is reported as 2628 folds. In the case of “C3A: F30-Pepper-1 mutant aptamer (NCAAAUCGUGGCGUGUCGNNNACUGGCGCCGN; RNA, backbone, methylation of C and the base at N not given here; Pepper aptamer mutant embedded in F30 scaffold) [Compound C3A]”, the Activation folds is reported as 2484 folds. For “C3U: F30-Pepper-1 mutant aptamer (NCUAAUCGUGGCGUGUCGNNNACUGGCGCCGN; RNA, backbone, methylation of C and the base at N not given here; Pepper aptamer mutant embedded in F30 scaffold) [Compound C3U]”, the Activation folds was 2016 folds. With “C7A: F30-Pepper-1 mutant aptamer (NCCAAUAGUGGCGUGUCGNNNACUGGCGCCGN; RNA, backbone, methylation of C and the base at N not given here; Pepper aptamer mutant embedded in F30 scaffold) [Compound C7A]” the Activation folds was 1044 folds. With “C7U: F30-Pepper-1 mutant aptamer (NCCAAUUGUGGCGUGUCGNNNACUGGCGCCGN; RNA, backbone, methylation of C and the base at N not given here; Pepper aptamer mutant embedded in F30 scaffold) [Compound C7U]” the Activation folds was 2268 folds. In the case of “C12U: F30-Pepper-1 mutant aptamer (NCCAAUCGUGGUGUGUCGNNNACUGGCGCCGN; Pepper mutant embedded in F30 scaffold, chemistry not given here, further chemistry not given here) [Compound C12U]”, the Activation folds is reported as 2268 folds. Work on “C27G: F30-Pepper-1 mutant aptamer (NCCAAUCGUGGCGUGUCGNNNACUGGGGCCGN; Pepper mutant embedded in F30 scaffold, chemistry not given here, further chemistry not given here) [Compound C27G]” yielded an Activation folds of 1875 folds. In the case of “C27U: F30-Pepper-1 mutant aptamer (NCCAAUCGUGGCGUGUCGNNNACUGGUGCCGN; Pepper mutant embedded in F30 scaffold, chemistry not given here, further chemistry not given here) [Compound C27U]”, the Activation folds is reported as 3158 folds. Substance “C29G: F30-Pepper-1 mutant aptamer (NCCAAUCGUGGCGUGUCGNNNACUGGCGGCGN; Pepper mutant embedded in F30 scaffold, chemistry not given here, further chemistry not given here) [Compound C29G]” has an Activation folds of 2145 folds. “C29U: F30-Pepper-1 mutant aptamer (NCCAAUCGUGGCGUGUCGNNNACUGGCGUCGN; Pepper mutant embedded in F30 scaffold, chemistry not given here, further chemistry not given here) [Compound C29U]” showed an Activation folds of 1437 folds. Work on “C30A: F30-Pepper-1 mutant aptamer (NCCAAUCGUGGCGUGUCGNNNACUGGCGCAGN; RNA, backbone, methylation of C and the base at N not given here; Pepper aptamer mutant embedded in F30 scaffold) [Compound C30A]” yielded an Activation folds of 1596 folds. For “C30U: F30-Pepper-1 mutant aptamer (NCCAAUCGUGGCGUGUCGNNNACUGGCGCUGN; RNA, backbone, methylation of C and the base at N not given here; Pepper aptamer mutant embedded in F30 scaffold) [Compound C30U]”, the Activation folds was 2587 folds. “G11A: F30-Pepper-1 mutant aptamer (NCCAAUCGUGACGUGUCGNNNACUGGCGCCGN; RNA, backbone, methylation of C and the base at N not given here; Pepper aptamer mutant embedded in F30 scaffold) [Compound G11A]” gave an Activation folds of 1526 folds. Work on “G11U: F30-Pepper-1 mutant aptamer (NCCAAUCGUGUCGUGUCGNNNACUGGCGCCGN; RNA, backbone, methylation of C and the base at N not given here; Pepper aptamer mutant embedded in F30 scaffold) [Compound G11U]” yielded an Activation folds of 1512 folds.
